Source: paper PMC4928982 (Science Advances, 2016)
Residues, ends and D or L forms follow the SMILES beside them.

Legend:
[1] = tested on: mouse placenta (maternofetal interface); format: in vivo, BALB/c mice; details: 200 μg, tail vein, cardiac perfusion
[2] = tested on: human first-trimester placental explants (CTB)
[3] = tested on: human placental explants (syncytiotrophoblast); test: Peptide-binding assay with human placental explants; format: cell-based; details: peptide 20 μM, 0 to 3 hours

**Q.** For `N=C(N)NCCC[C@H](NC(=O)[C@H](CCCCN)NC(=O)CNC(=O)[C@H](CS)NC(=O)c1ccc2c(c1)C(=O)OC21c2ccc(O)cc2Oc2cc(O)ccc21)C(=O)N[C@@H](CCCCN)C(=O)O` [FAM-CGKRK] (HELM PEPTIDE1{[O=C1OC2(c3ccc(O)cc3Oc3cc(O)ccc32)c2ccc(C(=O)[*:2])cc21].C.G.K.R.K}$$$$V2.0), which “accumulation in maternal organs” value ([1]; pregnant mice, 3 hours, confocal microscopy (fig. S1)) is on record?
**A.** do not accumulate in maternal organs of pregnant mice

**Q.** Which “basal rates of CTB proliferation (Ki67)” value [2] does the source give for “Cys-Arg-Gly-Asp-Lys-Gly-Pro-Asp-Cys (disulfide) [iRGD]” here?
**A.** did not alter

**Q.** What about the “rate of CTB apoptosis (M30)” value [2] of the same molecule?
**A.** modestly reduced

**Q.** Which “basal rates of CTB proliferation (Ki67)” value [2] does the source give for Cys-Gly-Lys-Arg-Lys [CGKRK] here?
**A.** did not alter

**Q.** What does the source list for FAM-ARALPSQRSR [reference compound]?
**A.** binding at the murine maternofetal interface ([1]; pregnant mice E11.5 to E17.5, 3 hours, fluorescence microscopy, n = 3 placentas from n = 4 mice): did not target the maternofetal interface; binding to human placenta (first-trimester and term explants) [3]: did not bind to the syncytium of human placenta or to other cellular components
